From US4251528A, “Phthalazin-4-ylacetic acid derivatives” (Imperial Chemical Industries Limited, priority 1977, dated 1981)

What was measured:
aldose reductase = biological target: T1, aldose reductase (Rattus norvegicus, UniProt P07943); assay: streptozotocin diabetic rat test, residual sorbitol levels in tissues; format: in vivo; conditions: oral dosing at 10 mg./kg. for 5 days
T1 construct: the eye lenses and sciatic nerves are removed; from tissue; host or cells: rat sciatic nerve (and eye lens), enzyme acting in the living animal
Description: Thus, rats are made diabetic by dosing with streptozotocin and are then dosed daily with the test compound for 5 days. The animals are then killed and the eye lenses and sciatic nerves are removed. After a standard work-up procedure the residual sorbitol levels in each tissue are determined by gas liquid chromatography after conversion to the poly trimethylsilyl derivatives. Inhibition of aldose reductase in vivo is then assessed by comparing the residual sorbitol levels in tissues from the dosed diabetic group of rats with those of an undosed group of diabetic rats and an undosed, normal group of rats.
Alternatively, a modified test may be used in which the streptozotocin induced diabetic rats are dosed daily with test compound for two days. After 2-4 hours from the final dose the animals are killed and the sciatic nerves are removed and assessed for residual sorbitol levels as described above.
Active compounds in either of these tests reduce residual sorbitol levels to levels which are similar to those of normal, undosed rats. […] No overt toxic or other undesirable effects were detected with compounds of formula I at 100 mg./kg. in the above tests.

[1] = biological target: T2, purified aldose reductase isolated from bovine lenses (Bos taurus, UniProt P16116); assay: in vitro inhibition of purified aldose reductase (reduction of glucose to sorbitol, spectrophotometric); format: biochemical
T2 construct: purified aldose reductase is isolated in known manner from bovine lenses; from tissue; host or cells: bovine lens
Description: Thus, purified aldose reductase is isolated in known manner from bovine lenses. The percentage inhibition of these enzyme's ability in vitro to reduce aldoses to polyhydric alcohols, and particularly to reduce glucose to sorbitol, caused by a test compound is then determined using standard spectrophotometric methods. […] Thus, by way of illustration, 2-(2-fluoro-4-bromobenzyl)-1,2-dihydro-1-oxophthalazin-4-ylacetic acid has a Ki of 2.0×10^-8 M.

[2] = test system: carageenin induced oedema; format: in vivo, rats; conditions: for overt toxicity: rat, in vivo; for inhibition of carageenin induced oedema: rats
Description: The compounds of the invention may therefore in addition be useful in the treatment of painful inflammatory joint diseases such as rheumatoid arthritis, osteoarthritis and ankylosing spondylitis. In this connection it is envisaged that they would be administered primarily orally at a daily dose in the range 10-50 mg./kg.

Structure (SMILES) | residual sorbitol level in the sciatic nerve, relative to control undosed diabetic rats (aldose reductase) | Ki [1] [nM] | overt toxicity [2] | inhibition of carageenin induced oedema [2]
O=C(O)Cc1nn(Cc2ccc(Br)cc2F)c(=O)c2ccccc12 [2-(2-fluoro-4-bromobenzyl)-1,2-dihydro-1-oxophthalazin-4-ylacetic acid] | approximately 60% | 20 | without any sign of overt toxicity | significant inhibition
O=C(O)Cc1nn(Cc2ccc(Br)c(Cl)c2)c(=O)c2ccccc12 [2-(3-chloro-4-bromobenzyl)-1,2-dihydro-1-oxophthalazin-4-ylacetic acid] | – | – | without any sign of overt toxicity | significant inhibition
